Experimental data taken from patent publication US8609610B2, “Inhibitors of the trypsin-like site of the proteasome and methods of use thereof” (Trustees of Dartmouth College, priority 2011, dated 2013).

What was measured:
Experiment in all cases: PROTEASOMEGLO assay of proteasome inhibition in MM cells
Format in all cases: cell-based
[1] = molecular target: T1, caspase-like sites (β1) of proteasome in MM cells (Homo sapiens, UniProt P28072+Q99436)
T1 sequence (P28072 35-239): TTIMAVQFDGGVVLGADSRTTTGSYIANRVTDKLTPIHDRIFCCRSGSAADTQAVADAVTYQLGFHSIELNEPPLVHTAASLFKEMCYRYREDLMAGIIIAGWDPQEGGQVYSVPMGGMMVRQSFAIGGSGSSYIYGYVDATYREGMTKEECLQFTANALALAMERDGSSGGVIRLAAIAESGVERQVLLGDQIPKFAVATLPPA
T1 sequence (Q99436 44-277): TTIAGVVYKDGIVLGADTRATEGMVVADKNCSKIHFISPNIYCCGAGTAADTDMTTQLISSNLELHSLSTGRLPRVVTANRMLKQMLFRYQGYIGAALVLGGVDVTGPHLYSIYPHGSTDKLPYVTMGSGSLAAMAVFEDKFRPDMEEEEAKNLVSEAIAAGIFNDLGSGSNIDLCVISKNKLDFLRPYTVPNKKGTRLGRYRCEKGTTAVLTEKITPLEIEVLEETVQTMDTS

[2] = molecular target: T2, chymotrypsin-like sites (β5) of proteasome in MM cells (Homo sapiens, UniProt P28074)
T2 sequence (P28074 60-263): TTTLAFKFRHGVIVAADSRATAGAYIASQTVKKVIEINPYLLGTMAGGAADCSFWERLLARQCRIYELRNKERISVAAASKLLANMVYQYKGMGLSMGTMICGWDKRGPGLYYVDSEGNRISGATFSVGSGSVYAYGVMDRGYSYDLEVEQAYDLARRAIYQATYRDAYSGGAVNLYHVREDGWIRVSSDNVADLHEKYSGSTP
Procedure: (§1) Proteasome inhibition in MM cells was measured with luminogenic substrates using PROTEASOMEGLO assay (Promega). […] An aliquot of culture was pelleted and medium was removed and replaced with PBS. The resulting cell suspension was mixed with luminogenic substrates in the manufacturer-provided lysis/assay buffer. After 3 minutes mixing on an orbital shaker, the plate was incubated in the dark for additional 17 minutes, followed by the measurements of the luminescence, performed in triplicate for each substrate/data point. Data were analyzed as for purified proteasomes. […] Cells (1×10^6 per well of a 6-well plate) were incubated with the inhibitors for 4 hours at 37° C. and this was followed by a 2 hour incubation with 5 μM BODIPY-TMR-epoxomicin. Subsequently, the medium was removed and the cells were washed with PBS and harvested. […] The supernatant was collected and the protein concentration was determined by the Bradford assay, and used to normalize gel loading. The samples were analysed by SDS-PAGE and fluorescent densitometry as described for competition experiment in cell lysates. IC50 values were calculated from three independent experiments using […] PRISM software.

[3] = molecular target: T3, trypsin-like sites (β2) of proteasome in MM cells (Homo sapiens, UniProt Q99436)
T3 construct: endogenous in cells; host or cells: NCI-H929, RPMI-8226 and other MM cell lines
T3 sequence (Q99436 44-277): T1 sequence (Q99436 44-277)
Procedure: as §1

CC(C)C[C@H](NC(=O)[C@H](Cc1c(F)c(F)c(F)c(F)c1F)NC(=O)[C@H](Cc1ccccc1)NC(=O)[C@H](Cc1ccccc1)N=[N+]=[N-])C(=O)[C@@]1(C)CO1 [LU-005]
Inhibition of active sites β1 ([1]; KMS-12-BM, LU-005 0.037 μM 1 h): −1 ± 5 % control
Inhibition of active sites β1 ([1]; KMS-12-BM, LU-005 0.33 μM 1 h): 6 ± 12 % control
Inhibition of active sites β1 ([1]; KMS-12-BM, LU-005 1.0 μM 1 h): 11 ± 16 % control
Inhibition of active sites β1 ([1]; KMS-18, LU-005 0.037 μM 1 h): 0 ± 8 % control
Inhibition of active sites β1 ([1]; KMS-18, LU-005 0.33 μM 1 h): 29 ± 7 % control
Inhibition of active sites β1 ([1]; KMS-18, LU-005 1.0 μM 1 h): 32 ± 4 % control
Inhibition of active sites β1 ([1]; KMS-18, LU-005 3.0 μM 1 h): 39 ± 12 % control
Inhibition of active sites β1 ([1]; KMS-18, LU-005 9.0 μM 1 h): 42 ± 2 % control
Inhibition of active sites β1 ([1]; MM1.R, LU-005 0.004 μM 1 h): 6 ± 8 % control
Inhibition of active sites β1 ([1]; NCI-H929, LU-005 0.0014 μM 1 h): −14 ± 15 % control
Inhibition of active sites β1 ([1]; NCI-H929, LU-005 0.004 μM 1 h): −7 ± 10 % control
Inhibition of active sites β1 ([1]; RPMI-8226, LU-005 0.037 μM 1 h): 16 ± 7 % control
Inhibition of active sites β1 ([1]; RPMI-8226, LU-005 0.33 μM 1 h): 37 ± 15 % control
Inhibition of active sites β1 ([1]; RPMI-8226, LU-005 1.0 μM 1 h): 37 ± 4 % control
Inhibition of active sites β5 ([2]; KMS-12-BM, LU-005 0.037 μM 1 h): 48 ± 9 % control
Inhibition of active sites β5 ([2]; KMS-12-BM, LU-005 0.33 μM 1 h): 81 ± 3 % control
Inhibition of active sites β5 ([2]; KMS-12-BM, LU-005 1.0 μM 1 h): 95 ± 2 % control
Inhibition of active sites β5 ([2]; KMS-18, LU-005 0.037 μM 1 h): 14 % control
Inhibition of active sites β5 ([2]; KMS-18, LU-005 0.33 μM 1 h): 69 ± 8 % control
Inhibition of active sites β5 ([2]; KMS-18, LU-005 1.0 μM 1 h): 85 ± 6 % control
Inhibition of active sites β5 ([2]; KMS-18, LU-005 3.0 μM 1 h): 94 ± 4 % control
Inhibition of active sites β5 ([2]; KMS-18, LU-005 9.0 μM 1 h): 97 ± 1 % control
Inhibition of active sites β5 ([2]; MM1.R, LU-005 0.004 μM 1 h): 17 ± 4 % control
Inhibition of active sites β5 ([2]; NCI-H929, LU-005 0.0014 μM 1 h): 22 ± 4 % control
Inhibition of active sites β5 ([2]; NCI-H929, LU-005 0.004 μM 1 h): 22 ± 11 % control
Inhibition of active sites β5 ([2]; RPMI-8226, LU-005 0.037 μM 1 h): 45 ± 26 % control
Inhibition of active sites β5 ([2]; RPMI-8226, LU-005 0.33 μM 1 h): 62 ± 32 % control
Inhibition of active sites β5 ([2]; RPMI-8226, LU-005 1.0 μM 1 h): 82 ± 16 % control
Inhibition of active sites β2 ([3]; KMS-12-BM, LU-005 0.037 μM 1 h): −12 ± 1 % control
Inhibition of active sites β2 ([3]; KMS-12-BM, LU-005 0.33 μM 1 h): 3 ± 18 % control
Inhibition of active sites β2 ([3]; KMS-12-BM, LU-005 1.0 μM 1 h): 29 ± 7 % control
Inhibition of active sites β2 ([3]; KMS-18, LU-005 0.037 μM 1 h): −13 ± 13 % control
Inhibition of active sites β2 ([3]; KMS-18, LU-005 0.33 μM 1 h): 24 ± 6 % control
Inhibition of active sites β2 ([3]; KMS-18, LU-005 1.0 μM 1 h): 38 ± 5 % control
Inhibition of active sites β2 ([3]; KMS-18, LU-005 3.0 μM 1 h): 50 ± 14 % control
Inhibition of active sites β2 ([3]; KMS-18, LU-005 9.0 μM 1 h): 62 ± 5 % control
Inhibition of active sites β2 ([3]; MM1.R, LU-005 0.004 μM 1 h): 6.5 ± 0.5 % control
Inhibition of active sites β2 ([3]; NCI-H929, LU-005 0.0014 μM 1 h): −9 ± 2 % control
Inhibition of active sites β2 ([3]; NCI-H929, LU-005 0.004 μM 1 h): −13 ± 7 % control
Inhibition of active sites β2 ([3]; RPMI-8226, LU-005 0.037 μM 1 h): 1 ± 17 % control
Inhibition of active sites β2 ([3]; RPMI-8226, LU-005 0.33 μM 1 h): 13 ± 11 % control
Inhibition of active sites β2 ([3]; RPMI-8226, LU-005 1.0 μM 1 h): 22 ± 19 % control
